Assay results published in patent US20210347758A1 (Tesaro, Inc., priority 2018, published 2021).
≈ marks a conversion by molar mass, not a printed value. Read-outs that look alike come from different tables or passages of the source.

How the values were obtained:
[1] = solids shaken in water or pH 1 / 4.5 / 6.8 buffer at 37° C.
Protocol: (§1) The resulting samples were shaken at 37° C. for 1 hour. […] All samples were then shaken at 37° C. for 23 hours. […] Any solids which were isolated by filtration were assessed by XRPD to determine whether the form of the material had changed.

[2] = for Hygroscopicity: GVS, double cycle
Protocol: Typically, approximately 10-20 mg of sample was placed into a mesh vapour sorption balance pan and loaded into an IGASorp Moisture Sorption Analyser balance by Hiden Analytical. The sample was subjected to a ramping profile from 40-90% relative humidity (RH) at 10% increments, maintaining the sample at each step until a stable weight had been achieved (98% step completion, minimum step length 30 minutes, maximum step length 60 minutes) at 25° C. After completion of the sorption cycle, the sample was dried using the same procedure to 0% RH, and finally taken back to the starting point of 40% RH. Two cycles were performed. The weight change during the sorption/desorption cycles were plotted, allowing for the hygroscopic nature of the sample to be determined.

[3] = physchem; conditions: for solubility at 24 h: 37 °C, thermodynamic from solid
Protocol: For each sample, 30 mg of the freebase was weighed into vials (in triplicate) and 1 mL of water or buffer was added. The following buffers (50 mM in each case) used were: • pH 1 25 mL KCl solution (1.49 g dissolved in 100 mL water) and 42.5 mL HCl solution (1.66 mL made up to 100 mL with water) were added together and made up to 100 mL with water; • pH 4.5 anhydrous sodium acetate (1.07 g) was dissolved in water (about 150 mL) before adding 5.9 mL acetic acid solution (11.6 mL glacial acetic acid made up to 100 mL with water). The resulting solution was made up to 500 mL with water; and • pH 6.8 25 mL of KH2PO4 solution (2.72 g dissolved in about 80 mL water and made up to 100 mL with water) and 11.2 mL of NaOH solution (800 mg of sodium hydroxide was dissolved and diluted to 100 mL with water) were added together and made up to 100 mL with water.
as §1

[4] = up to 1 mL
Protocol: Between each addition, the mixture was checked for dissolution and, if no dissolution was apparent, the mixture was heated to about 50° C. and checked again. After 300 μL of solvent had been added, 100 μL aliquots were added sequentially. This procedure was continued until dissolution was observed or until 1 mL of solvent had been added. If no dissolution occurred, the solids were isolated by filtration and an XRPD pattern was collected. If dissolution occurred, the solvent was evaporated and an XRPD pattern was collected on any solid which remained.

[5] = system: BRCA1- and BRCA2-deficient cell lines; conditions: in vitro; cited from earlier work
[6] = system: human cancers with deficiencies in BRCA1 and BRCA2 or with homologous recombination deficiency (HRD); conditions: mutated or wild-type BRCA1/2; cited from earlier work
[7] = system: poly (ADP-ribose) polymerase (“PARP”) proteins; conditions: selective for PARP-1 and PARP-2; Thorsell et al.; cited from earlier work
[8] = pH 1 buffer (50 mM), shaken at 37° C. for 24 hours in total, average of triplicate
[9] = water, shaken at 37° C. for 24 hours in total, average of triplicate

Structure (SMILES) | Solid form after filtration (XRPD) ([1]; listed as crystalline samples) | Hygroscopicity ([2]; listed as Niraparib freebase Form I) | Hygroscopicity ([2]; listed as niraparib freebase Form I) | GVS mass increase ([2]; up to 90% RH, 25° C.) | Solubility [3, 8] [µg/mL] | Solubility ([3]; pH 4.5 buffer (50 mM), shaken at 37° C. for 24 hours in total, average of triplicate) [µg/mL] | Solubility ([3]; pH 6.8 buffer (50 mM), shaken at 37° C. for 24 hours in total, average of triplicate) [µg/mL] | Solubility [3, 9] [µg/mL] | Solid form after filtration (XRPD) ([1]; listed as amorphous samples) | solubility at 24 h ([3]; pH 4.5 sodium acetate/acetic acid buffer, pH 4.5, aqueous buffer, pH 4.5 buffer (50 mM), shaken at 37° C. for 24 hours in total, average of triplicate) [µg/mL] | solubility at 24 h ([3]; pH 6.8 KH2PO4/NaOH buffer, pH 6.8, aqueous buffer, pH 6.8 buffer (50 mM), shaken at 37° C. for 24 hours in total, average of triplicate) [µg/mL] | Solubility ([3]; water, Solubility in water, summary statement, conditions not stated) [µg/mL] | Dissolution in 2-propanol ([4]; 2-propanol, heated to about 50° C.) | Dissolution in ethanol ([4]; ethanol, with heating to about 40° C.) | Inhibition of proliferation [5] | Tumor growth [6] | PARP inhibition [7]
NC(=O)c1cccc2cn(-c3ccc([C@@H]4CCCNC4)cc3)nc12 [Crystalline Form I, 2-{4-[(3S)-piperidin-3-yl]phenyl}-2H-indazole-7-carboxamide] | unchanged | non-hygroscopic | non-hydroscopic | about 0.7% | 30900 (≈ 96.4 mM) | 11800 (≈ 36.8 mM) | 700 (≈ 2.18 mM) | <100 | – | – | – | – | – | – | – | – | –
NC(=O)c1cccc2cn(-c3ccc([C@@H]4CCCNC4)cc3)nc12 [Amorphous Form, 2-{4-[(3S)-piperidin-3-yl]phenyl}-2H-indazole-7-carboxamide] | – | – | – | – | 11800 (≈ 36.8 mM) | – | – | 800 (≈ 2.5 mM) | a new crystalline form was obtained (Form V) | 13400 (≈ 41.8 mM) | 600 (≈ 1.87 mM) | ~1000 (≈ 3.12 mM) | partially soluble | Complete dissolution | – | – | –
NC(=O)c1cccc2cn(-c3ccc([C@@H]4CCCNC4)cc3)nc12 [Niraparib, 2-{4-[(3S)-piperidin-3-yl]phenyl}-2H-indazole-7-carboxamide] | – | – | – | – | – | – | – | – | – | – | – | – | – | – | inhibits the proliferation | decreases tumor growth | potent inhibitor
